Activity calls are given as the source filed them. The calls are words filed in the database; no cut-off is given here.
Tests used:
Gallus gallus = species: Gallus gallus; test: Anticoccidial activity against toxoplasmosis in chicken; no activity; assay type: functional, organism-based
[1] = Anticoccidial activity against toxoplasmosis in cattle; no activity; assay type: functional
[2] = (§1) Enzymatic activity was determined
[3] = as §1; remark: listed apart in the source

Row | Ki [2] [µM] | SMILES | also measured
1 | 130 | Nc1ccc(S(N)(=O)=O)cc1 [SULFANILAMIDE] | –
2 | 14 | Nc1ccc(S(=O)(=O)Nc2nccs2)cc1 [SULFATHIAZOLE] | –

The next lines start with the compound.

Row | SMILES | Ki [2] [µM] | also measured
3 | CCCc1ncc(C[n+]2ccccc2C)c(N)n1 | – | Activity (Gallus gallus): inactive; Activity [1]: inactive
4 | N=C(N)NS(=O)(=O)c1ccc(N)cc1 [SULFAGUANIDINE] | 69 | –
5 | Nc1ccc(C(=O)O)cc1 | – | Km [3]: 1.5 µM
